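Tested at 5 concentrations; 48 h exposure; 96-well plates; endpoints linearly interpolated, else capped at highest concentration. GI50 is the concentration that inhibits growth by half. At the TGI there is no net growth.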
Key:
Assay in all cases: growth of human tumour cells (NCI), 48 h
T-47D breast = system: T-47D breast
MCF7 breast = system: MCF7 breast
UACC-62 melanoma = system: UACC-62 melanoma
U251 CNS = system: U251 CNS
NCI-H460 lung = system: NCI-H460 lung
786-0 renal = system: 786-0 renal
OVCAR-3 ovarian = system: OVCAR-3 ovarian
UACC-257 melanoma = system: UACC-257 melanoma
HCC-2998 colon = system: HCC-2998 colon
IGROV1 ovarian = system: IGROV1 ovarian
COLO 205 colon = system: COLO 205 colon
K-562 leukemia = system: K-562 leukemia
NCI/ADR-RES ovarian = system: NCI/ADR-RES ovarian
HCT-116 colon = system: HCT-116 colon
A498 renal = system: A498 renal
SF-539 CNS = system: SF-539 CNS
SN12C renal = system: SN12C renal
MOLT-4 leukemia = system: MOLT-4 leukemia
SK-MEL-5 melanoma = system: SK-MEL-5 melanoma
UO-31 renal = system: UO-31 renal
MALME-3M melanoma = system: MALME-3M melanoma
SK-OV-3 ovarian = system: SK-OV-3 ovarian
OVCAR-8 ovarian = system: OVCAR-8 ovarian
SF-295 CNS = system: SF-295 CNS
NCI-H522 lung = system: NCI-H522 lung
SF-268 CNS = system: SF-268 CNS
SK-MEL-2 melanoma = system: SK-MEL-2 melanoma
ACHN renal = system: ACHN renal
SR leukemia = system: SR leukemia
HOP-62 NSCLC = system: HOP-62 NSCLC
NCI-H226 lung = system: NCI-H226 lung
M14 melanoma = system: M14 melanoma
A549 NSCLC = system: A549 NSCLC
EKVX NSCLC = system: EKVX NSCLC
RPMI-8226 leukemia = system: RPMI-8226 leukemia
KM12 colon = system: KM12 colon
RXF 393 renal = system: RXF 393 renal
HT29 colon = system: HT29 colon
SW-620 colon = system: SW-620 colon
BT-549 breast = system: BT-549 breast
HL-60(TB) leukemia = system: HL-60(TB) leukemia
NCI-H23 lung = system: NCI-H23 lung
CAKI-1 renal = system: CAKI-1 renal
OVCAR-4 ovarian = system: OVCAR-4 ovarian
MDA-MB-435 = system: MDA-MB-435
PC-3 prostate = system: PC-3 prostate
OVCAR-5 ovarian = system: OVCAR-5 ovarian
MDA-MB-231 breast = system: MDA-MB-231 breast
HOP-92 NSCLC = system: HOP-92 NSCLC
TK-10 renal = system: TK-10 renal
HS 578T breast = system: HS 578T breast
HCT-15 colon = system: HCT-15 colon
SNB-19 CNS = system: SNB-19 CNS
SK-MEL-28 melanoma = system: SK-MEL-28 melanoma
LOX IMVI melanoma = system: LOX IMVI melanoma
DU-145 prostate = system: DU-145 prostate
CCRF-CEM leukemia = system: CCRF-CEM leukemia

COc1ccc(C(=O)/C=C/c2ccc(Cl)cc2)cc1S(=O)(=O)Nc1c(N)nc(SC)[nH]c1=O showed a GI50 (T-47D breast) of 2.45 µM, a TGI (T-47D breast) of 9.83 µM and a GI50 (MCF7 breast) of 1.97 µM. It also gave a TGI (MCF7 breast) of 8.25 µM, a GI50 (UACC-62 melanoma) of 2.33 µM and a TGI (UACC-62 melanoma) of 6.65 µM. The GI50 (U251 CNS) was 1.58 µM, the TGI (U251 CNS) was 3.12 µM and the GI50 (NCI-H460 lung) was 2.49 µM. The TGI (NCI-H460 lung) was 6.29 µM, the GI50 (786-0 renal) was 1.95 µM and the TGI (786-0 renal) was 4.13 µM. It also gave a GI50 (OVCAR-3 ovarian) of 1.94 µM, a TGI (OVCAR-3 ovarian) of 3.94 µM and a GI50 (UACC-257 melanoma) of 8.27 µM. The TGI (UACC-257 melanoma) was 21.4 µM, the GI50 (HCC-2998 colon) was 1.92 µM and the TGI (HCC-2998 colon) was 3.53 µM. For the same molecule, the GI50 (IGROV1 ovarian) was 3.25 µM, the TGI (IGROV1 ovarian) was 11.9 µM and the GI50 (COLO 205 colon) was 1.76 µM. The TGI (COLO 205 colon) was 3.42 µM, the GI50 (K-562 leukemia) was 2.77 µM and the TGI (K-562 leukemia) was > 100 µM. For the same molecule, the GI50 (NCI/ADR-RES ovarian) was 40.1 µM, the TGI (NCI/ADR-RES ovarian) was > 100 µM and the GI50 (HCT-116 colon) was 1.56 µM. The TGI (HCT-116 colon) was 2.94 µM, the GI50 (A498 renal) was 10.6 µM and the TGI (A498 renal) was 22.4 µM. It also gave a GI50 (SF-539 CNS) of 2.1 µM, a TGI (SF-539 CNS) of 5 µM and a GI50 (SN12C renal) of 3.45 µM. The TGI (SN12C renal) was 13.8 µM, the GI50 (MOLT-4 leukemia) was 3.71 µM and the TGI (MOLT-4 leukemia) was 18.7 µM. For the same molecule, the GI50 (SK-MEL-5 melanoma) was 2.72 µM, the TGI (SK-MEL-5 melanoma) was 9.59 µM and the GI50 (UO-31 renal) was 1.89 µM. The TGI (UO-31 renal) was 4.53 µM, the GI50 (MALME-3M melanoma) was 3.02 µM and the TGI (MALME-3M melanoma) was 9.93 µM. For the same molecule, the GI50 (SK-OV-3 ovarian) was 3.65 µM, the TGI (SK-OV-3 ovarian) was 13.4 µM and the GI50 (OVCAR-8 ovarian) was 3.07 µM. It also gave a TGI (OVCAR-8 ovarian) of 9.56 µM, a GI50 (SF-295 CNS) of 2.72 µM and a TGI (SF-295 CNS) of 8.91 µM. The GI50 (NCI-H522 lung) was 1.88 µM, the TGI (NCI-H522 lung) was 4.08 µM and the GI50 (SF-268 CNS) was 2.69 µM. The TGI (SF-268 CNS) was 7.32 µM, the GI50 (SK-MEL-2 melanoma) was 12.8 µM and the TGI (SK-MEL-2 melanoma) was 27.9 µM. For the same molecule, the GI50 (ACHN renal) was 3.23 µM, the TGI (ACHN renal) was 12.1 µM and the GI50 (SR leukemia) was 3.57 µM. For the same molecule, the TGI (SR leukemia) was > 100 µM, the GI50 (HOP-62 NSCLC) was 1.81 µM and the TGI (HOP-62 NSCLC) was 3.97 µM. It also gave a GI50 (NCI-H226 lung) of 2.34 µM, a TGI (NCI-H226 lung) of 8.36 µM and a GI50 (M14 melanoma) of 2 µM. It also gave a TGI (M14 melanoma) of 4.89 µM, a GI50 (A549 NSCLC) of 2.75 µM and a TGI (A549 NSCLC) of 7.62 µM. The GI50 (EKVX NSCLC) was 3.94 µM, the TGI (EKVX NSCLC) was 18.3 µM and the GI50 (RPMI-8226 leukemia) was 2.17 µM. It also gave a TGI (RPMI-8226 leukemia) of 5.97 µM, a GI50 (KM12 colon) of 2.09 µM and a TGI (KM12 colon) of 4.51 µM. It also gave a GI50 (RXF 393 renal) of 1.6 µM, a TGI (RXF 393 renal) of 3.26 µM and a GI50 (HT29 colon) of 2.93 µM. It also gave a TGI (HT29 colon) of 7.93 µM, a GI50 (SW-620 colon) of 2.24 µM and a TGI (SW-620 colon) of 5.5 µM. The GI50 (BT-549 breast) was 1.63 µM, the TGI (BT-549 breast) was 3.17 µM and the GI50 (HL-60(TB) leukemia) was 3.2 µM. The TGI (HL-60(TB) leukemia) was 16.1 µM, the GI50 (NCI-H23 lung) was 2.53 µM and the TGI (NCI-H23 lung) was 6.36 µM. The GI50 (CAKI-1 renal) was 3.83 µM, the TGI (CAKI-1 renal) was 18.6 µM and the GI50 (OVCAR-4 ovarian) was 4.49 µM. The TGI (OVCAR-4 ovarian) was 14.9 µM, the GI50 (MDA-MB-435) was 2.95 µM and the TGI (MDA-MB-435) was 10.7 µM. For the same molecule, the GI50 (PC-3 prostate) was 2.53 µM, the TGI (PC-3 prostate) was 6.85 µM and the GI50 (OVCAR-5 ovarian) was 2.83 µM. For the same molecule, the TGI (OVCAR-5 ovarian) was 9.53 µM, the GI50 (MDA-MB-231 breast) was 3.42 µM and the TGI (MDA-MB-231 breast) was 10.5 µM. It also gave a GI50 (HOP-92 NSCLC) of 2.59 µM, a TGI (HOP-92 NSCLC) of 7.99 µM and a GI50 (TK-10 renal) of 2.98 µM. It also gave a TGI (TK-10 renal) of 9.44 µM, a GI50 (HS 578T breast) of 3.56 µM and a TGI (HS 578T breast) of 24.2 µM. It also gave a GI50 (HCT-15 colon) of 3.24 µM, a TGI (HCT-15 colon) of 14.9 µM and a GI50 (SNB-19 CNS) of 2.52 µM. It also gave a TGI (SNB-19 CNS) of 8.34 µM, a GI50 (SK-MEL-28 melanoma) of 2.1 µM and a TGI (SK-MEL-28 melanoma) of 4.97 µM. For the same molecule, the GI50 (LOX IMVI melanoma) was 1.63 µM, the TGI (LOX IMVI melanoma) was 3.22 µM and the GI50 (DU-145 prostate) was 3.58 µM. For the same molecule, the TGI (DU-145 prostate) was 11.5 µM, the GI50 (CCRF-CEM leukemia) was 2.66 µM and the TGI (CCRF-CEM leukemia) was 8.97 µM.
